According to paper PMC5218480 (PLoS ONE, 2017):

Test system: MV-4-11 cells
Assay: Gene expression microarray analysis (Affymetrix PrimeView) and GSEA
Type: cell-based, human
Set-up: RFU PODN (11730768_x_at) / Fold change /veh PODN (11730768_x_at) / RFU LINC00158 (11744669_a_at) / Fold change /veh LINC00158 (11744669_a_at) / RFU DUSP10 (11751237_a_at) / Fold change /veh DUSP10 (11751237_a_at) / RFU ID3 (11757404_x_at) / Fold change /veh ID3 (11757404_x_at) / RFU PLEKHG5 (11737974_s_at) / Fold change /veh PLEKHG5 (11737974_s_at) / RFU LRRC4B (11730491_at) / Fold change /veh LRRC4B (11730491_at) / RFU GIMAP4 (11747438_a_at) / Fold change /veh GIMAP4 (11747438_a_at) / RFU KRT8 (11758183_x_at) / Fold change /veh KRT8 (11758183_x_at) / RFU CNN1 (11734310_a_at) / Fold change /veh CNN1 (11734310_a_at) / RFU VPS37D (11726825_at) / Fold change /veh VPS37D (11726825_at) / RFU C10orf10 (11716522_x_at) / Fold change /veh C10orf10 (11716522_x_at) / RFU KIR2DL2 /// KIR2DL4 /// KIR2DL5A /// KIR2DL5B /// KIR2DS1 /// KIR2DS2 /// KIR2DS3 /// KIR2DS4 /// KIR3DL3 /// KIR3DL3 /// KIR3DS1 (11738374_at) / Fold change /veh KIR2DL2 /// KIR2DL4 /// KIR2DL5A /// KIR2DL5B /// KIR2DS1 /// KIR2DS2 /// KIR2DS3 /// KIR2DS4 /// KIR3DL3 /// KIR3DL3 /// KIR3DS1 (11738374_at) / RFU C1QL1 (11718748_at) / Fold change /veh C1QL1 (11718748_at) / RFU TMPRSS4 (11747572_a_at) / Fold change /veh TMPRSS4 (11747572_a_at) / RFU HAMP (11756126_x_at) / Fold change /veh HAMP (11756126_x_at) / RFU RNFT2 (11725882_a_at) / Fold change /veh RNFT2 (11725882_a_at) / RFU NR4A2 (11747474_a_at) / Fold change /veh NR4A2 (11747474_a_at) / RFU ABCC12 (11746883_a_at) / Fold change /veh ABCC12 (11746883_a_at) / RFU TMEM136 (11760407_x_at) / Fold change /veh TMEM136 (11760407_x_at) / RFU CLDN22 /// WWC2 (11732394_at) / Fold change /veh CLDN22 /// WWC2 (11732394_at) / RFU HLA-DPB1 (11760878_x_at) / Fold change /veh HLA-DPB1 (11760878_x_at) / RFU SPINT1 (11716480_a_at) / Fold change /veh SPINT1 (11716480_a_at) / RFU GAP43 (11754022_s_at) / Fold change /veh GAP43 (11754022_s_at) / RFU A4GNT (11735810_at) / Fold change /veh A4GNT (11735810_at) / RFU PRB3 (11715151_x_at) / Fold change /veh PRB3 (11715151_x_at) / RFU TUBB4B (11761932_at) / Fold change /veh TUBB4B (11761932_at) / RFU CAPN14 (11732068_a_at) / Fold change /veh CAPN14 (11732068_a_at) / RFU TMCC2 (11721928_a_at) / Fold change /veh TMCC2 (11721928_a_at) / RFU IRGQ (11745062_a_at) / Fold change /veh IRGQ (11745062_a_at) / RFU FAM174B (11720279_a_at) / Fold change /veh FAM174B (11720279_a_at) / RFU TMPRSS4 (11748680_a_at) / Fold change /veh TMPRSS4 (11748680_a_at) / RFU FAM212B (11763350_a_at) / Fold change /veh FAM212B (11763350_a_at) / RFU PLEKHG5 (11743358_a_at) / Fold change /veh PLEKHG5 (11743358_a_at) / RFU ZSCAN30 (11745921_a_at) / Fold change /veh ZSCAN30 (11745921_a_at) / RFU CMKLR1 (11741424_a_at) / Fold change /veh CMKLR1 (11741424_a_at) / RFU LOC101060620 /// MAPK8IP1 (11723275_at) / Fold change /veh LOC101060620 /// MAPK8IP1 (11723275_at) / RFU SPTSSB (11747773_x_at) / Fold change /veh SPTSSB (11747773_x_at) / RFU PRSS12 (11739890_at) / Fold change /veh PRSS12 (11739890_at) / RFU BIN1 (11741810_x_at) / Fold change /veh BIN1 (11741810_x_at) / RFU WNT11 (11732464_a_at) / Fold change /veh WNT11 (11732464_a_at) / RFU C10orf10 (11716521_a_at) / Fold change /veh C10orf10 (11716521_a_at) / RFU C5orf56 (11738089_at) / Fold change /veh C5orf56 (11738089_at) / RFU CYB561 (11721691_x_at) / Fold change /veh CYB561 (11721691_x_at) / RFU ANKRD19P (11752326_a_at) / Fold change /veh ANKRD19P (11752326_a_at) / RFU OR2T12 /// OR2T33 /// OR2T8 (11738714_s_at) / Fold change /veh OR2T12 /// OR2T33 /// OR2T8 (11738714_s_at) / RFU VCAN (11748164_a_at) / Fold change /veh VCAN (11748164_a_at) / RFU JSRP1 (11732532_at) / Fold change /veh JSRP1 (11732532_at) / RFU KRTAP10-11 (11738290_x_at) / Fold change /veh KRTAP10-11 (11738290_x_at) / RFU MYO3A (11730013_a_at) / Fold change /veh MYO3A (11730013_a_at) / RFU EBF3 (11725865_a_at) / Fold change /veh EBF3 (11725865_a_at) / RFU CAMK2N1 (11719241_x_at) / Fold change /veh CAMK2N1 (11719241_x_at) / RFU C5orf56 (11738088_a_at) / Fold change /veh C5orf56 (11738088_a_at) / RFU OLFML3 (11715873_a_at) / Fold change /veh OLFML3 (11715873_a_at) / RFU LOC100653217 /// NTM (11731650_a_at) / Fold change /veh LOC100653217 /// NTM (11731650_a_at) / RFU MAPK11 (11762145_a_at) / Fold change /veh MAPK11 (11762145_a_at) / RFU FIZ1 (11724087_x_at) / Fold change /veh FIZ1 (11724087_x_at) / RFU OASL (11726364_x_at) / Fold change /veh OASL (11726364_x_at) / RFU SOX15 (11748057_x_at) / Fold change /veh SOX15 (11748057_x_at) / RFU CD79A (11719716_a_at) / Fold change /veh CD79A (11719716_a_at) / RFU HIST1H1D (11736915_at) / Fold change /veh HIST1H1D (11736915_at) / RFU CASKIN2 (11723855_a_at) / Fold change /veh CASKIN2 (11723855_a_at) / RFU LOC730098 (11760151_x_at) / Fold change /veh LOC730098 (11760151_x_at) / RFU OR4N2 (11742367_at) / Fold change /veh OR4N2 (11742367_at) / RFU PRRT2 (11749266_a_at) / Fold change /veh PRRT2 (11749266_a_at) / RFU SNX32 (11753110_a_at) / Fold change /veh SNX32 (11753110_a_at) / RFU CDHR5 (11726645_a_at) / Fold change /veh CDHR5 (11726645_a_at) / RFU RCAN1 (11760418_a_at) / Fold change /veh RCAN1 (11760418_a_at) / RFU FAM167A (11723789_a_at) / Fold change /veh FAM167A (11723789_a_at) / RFU FAM26E (11764081_at) / Fold change /veh FAM26E (11764081_at) / RFU ISYNA1 (11749810_s_at) / Fold change /veh ISYNA1 (11749810_s_at) / RFU ACY1 (11761880_at) / Fold change /veh ACY1 (11761880_at) / RFU 11764098_at / Fold change /veh 11764098_at / RFU SAMD14 (11745864_x_at) / Fold change /veh SAMD14 (11745864_x_at) / RFU NPB (11741838_a_at) / Fold change /veh NPB (11741838_a_at) / RFU TMPRSS6 (11731388_a_at) / Fold change /veh TMPRSS6 (11731388_a_at) / RFU KRTAP10-2 (11738614_at) / Fold change /veh KRTAP10-2 (11738614_at) / RFU ARHGAP8 /// PRR5-ARHGAP8 (11727945_x_at) / Fold change /veh ARHGAP8 /// PRR5-ARHGAP8 (11727945_x_at) / RFU KRTAP5-7 /// NADSYN1 (11734609_at) / Fold change /veh KRTAP5-7 /// NADSYN1 (11734609_at) / RFU RASL12 (11751679_a_at) / Fold change /veh RASL12 (11751679_a_at) / RFU CDKN2B (11736163_a_at) / Fold change /veh CDKN2B (11736163_a_at) / RFU PRF1 (11729649_at) / Fold change /veh PRF1 (11729649_at) / RFU, ZNF638 /// ZNF638-IT1 / Fold change vs veh, ZNF638 /// ZNF638-IT1 / RFU, PANK3 / Fold change vs veh, PANK3 / RFU, SH3YL1 / Fold change vs veh, SH3YL1 / RFU, ZEB2 / Fold change vs veh, ZEB2 / RFU, NRIP1 / Fold change vs veh, NRIP1 / RFU, PTTG1IP / Fold change vs veh, PTTG1IP / RFU, CAPN2 / Fold change vs veh, CAPN2 / RFU, MED14 / Fold change vs veh, MED14 / RFU, SNORA58 / Fold change vs veh, SNORA58 / RFU, C1orf63 / Fold change vs veh, C1orf63 / RFU, LRRFIP1 / Fold change vs veh, LRRFIP1 / RFU, NDUFAF7 / Fold change vs veh, NDUFAF7 / RFU, SLC12A2 / Fold change vs veh, SLC12A2 / RFU, IBTK / Fold change vs veh, IBTK / RFU, ESF1 / Fold change vs veh, ESF1 / Fold change vs veh, TMEM50B / RFU, TAOK1 / Fold change vs veh, TAOK1 / RFU, ACBD3 / Fold change vs veh, ACBD3 / RFU, TMA16 / Fold change vs veh, TMA16 / RFU, RWDD3 / Fold change vs veh, RWDD3 / RFU, BCAT1 / Fold change vs veh, BCAT1 / RFU, EDEM3 / Fold change vs veh, EDEM3 / RFU, TMEM33 / Fold change vs veh, TMEM33 / RFU, WDR75 / Fold change vs veh, WDR75 / RFU, AHCTF1 / Fold change vs veh, AHCTF1 / RFU, TFRC / Fold change vs veh, TFRC / RFU, ZDHHC17 / Fold change vs veh, ZDHHC17 / RFU, NOM1 / Fold change vs veh, NOM1 / RFU, ARL8B / Fold change vs veh, ARL8B / RFU, ZBTB11 / Fold change vs veh, ZBTB11 / RFU, TAMM41 / Fold change vs veh, TAMM41 / RFU, KIAA1704 /// LOC100996395 / Fold change vs veh, KIAA1704 /// LOC100996395 / RFU, ING1 / Fold change vs veh, ING1 / RFU, TRMT61B / Fold change vs veh, TRMT61B / RFU, FUBP3 / Fold change vs veh, FUBP3 / RFU, TP53 / Fold change vs veh, TP53 / RFU, TNKS2 / Fold change vs veh, TNKS2 / RFU, ZFP14 / Fold change vs veh, ZFP14 / RFU, ACTR2 / Fold change vs veh, ACTR2 / RFU, PPP3R1 / Fold change vs veh, PPP3R1 / RFU, PIK3R1 / Fold change vs veh, PIK3R1 / RFU, HNRNPA1 / Fold change vs veh, HNRNPA1 / RFU, RNF170 / Fold change vs veh, RNF170 / RFU, ZNF28 / Fold change vs veh, ZNF28 / RFU, RNGTT / Fold change vs veh, RNGTT / RFU, OGT / Fold change vs veh, OGT / RFU, BRD1 / Fold change vs veh, BRD1 / RFU, MARS / Fold change vs veh, MARS / RFU, ZNF655 / Fold change vs veh, ZNF655 / RFU, FAHD1 / Fold change vs veh, FAHD1 / RFU, BDP1 / Fold change vs veh, BDP1 / RFU, LRRCC1 / Fold change vs veh, LRRCC1 / RFU, ARID1A / Fold change vs veh, ARID1A / RFU, ZNF146 / Fold change vs veh, ZNF146 / RFU, ZNF330 / Fold change vs veh, ZNF330 / RFU, GPN3 / Fold change vs veh, GPN3 / RFU, C9orf123 / Fold change vs veh, C9orf123 / RFU, N4BP2L2 / Fold change vs veh, N4BP2L2 / RFU, ARFIP1 / Fold change vs veh, ARFIP1 / RFU, FAM179B / Fold change vs veh, FAM179B / RFU, BCL10 / Fold change vs veh, BCL10 / RFU, UHRF1BP1L / Fold change vs veh, UHRF1BP1L / RFU, BET1 / Fold change vs veh, BET1 / RFU, CNOT2 / Fold change vs veh, CNOT2 / RFU, ZNF268 / Fold change vs veh, ZNF268 / Fold change vs veh, ZNF507 / RFU, DGCR2 / Fold change vs veh, DGCR2 / RFU, WDSUB1 / Fold change vs veh, WDSUB1 / Fold change vs veh, HSP90B1 /// MIR3652 / RFU, ADSS / Fold change vs veh, ADSS / RFU, GK / Fold change vs veh, GK / RFU, ZNF148 / Fold change vs veh, ZNF148 / RFU, TAF9 / Fold change vs veh, TAF9 / RFU, SLC1A5 / Fold change vs veh, SLC1A5 / RFU, SLMO2 / Fold change vs veh, SLMO2 / RFU, ABCC4 / Fold change vs veh, ABCC4 / RFU, LOC101060439 /// RAP1B / Fold change vs veh, LOC101060439 /// RAP1B / RFU, RFX7 / Fold change vs veh, RFX7 / RFU, GTPBP10 / Fold change vs veh, GTPBP10 / RFU, CNEP1R1 / Fold change vs veh, CNEP1R1 / RFU, BIVM-ERCC5 /// ERCC5 / Fold change vs veh, BIVM-ERCC5 /// ERCC5 / RFU, ILF3 / Fold change vs veh, ILF3 / RFU 11762660_at / Fold change /veh 11762660_at / RFU VCAN (11757783_s_at) / Fold change /veh VCAN (11757783_s_at) / RFU DDX43 (11728927_at) / Fold change /veh DDX43 (11728927_at) / RFU KRT8 (11758188_x_at) / Fold change /veh KRT8 (11758188_x_at) / RFU NKD1 (11759106_at) / Fold change /veh NKD1 (11759106_at) / RFU SRD5A1 (11742802_a_at) / Fold change /veh SRD5A1 (11742802_a_at) / RFU TPSAB1 /// TPSB2 (11721975_s_at) / Fold change /veh TPSAB1 /// TPSB2 (11721975_s_at) / RFU GSTM3 (11746129_a_at) / Fold change /veh GSTM3 (11746129_a_at) / RFU IL23R (11737362_x_at) / Fold change /veh IL23R (11737362_x_at) / RFU TMEM51 (11727254_a_at) / Fold change /veh TMEM51 (11727254_a_at) / RFU PIWIL2 (11732686_x_at) / Fold change /veh PIWIL2 (11732686_x_at) / RFU ORM1 (11744905_x_at) / Fold change /veh ORM1 (11744905_x_at) / RFU CCDC152 (11743942_at) / Fold change /veh CCDC152 (11743942_at) / RFU ECM1 (11717891_a_at) / Fold change /veh ECM1 (11717891_a_at) / RFU IL23R (11748794_a_at) / Fold change /veh IL23R (11748794_a_at) / RFU TNFAIP8L3 (11732012_x_at) / Fold change /veh TNFAIP8L3 (11732012_x_at) / RFU MBOAT4 (11741988_at) / Fold change /veh MBOAT4 (11741988_at) / RFU 11764193_at / Fold change /veh 11764193_at / RFU TMEM53 (11763286_at) / Fold change /veh TMEM53 (11763286_at) / RFU MAGEB2 (11727129_at) / Fold change /veh MAGEB2 (11727129_at) / RFU TMEM200A (11744735_a_at) / Fold change /veh TMEM200A (11744735_a_at) / RFU CCDC152 (11751479_a_at) / Fold change /veh CCDC152 (11751479_a_at) / RFU FAM211A (11726209_a_at) / Fold change /veh FAM211A (11726209_a_at) / RFU RGS16 (11746705_a_at) / Fold change /veh RGS16 (11746705_a_at) / RFU VCAN (11755009_s_at) / Fold change /veh VCAN (11755009_s_at) / RFU RHOB (11743442_s_at) / Fold change /veh RHOB (11743442_s_at) / RFU RGS16 (11720943_a_at) / Fold change /veh RGS16 (11720943_a_at) / RFU RGS16 (11720944_at) / Fold change /veh RGS16 (11720944_at) / RFU, VPS4B / Fold change vs veh, VPS4B / RFU, CREB1 / Fold change vs veh, CREB1 / RFU, DNAJC13 / Fold change vs veh, DNAJC13 / RFU, GNAQ / Fold change vs veh, GNAQ / RFU, CDK5R1 / Fold change vs veh, CDK5R1 / RFU, ZRANB3 / Fold change vs veh, ZRANB3 / RFU, CUL4A / Fold change vs veh, CUL4A / RFU, CCNY / Fold change vs veh, CCNY / RFU, UFL1 / Fold change vs veh, UFL1 / RFU, COG3 / Fold change vs veh, COG3 / RFU, DIAPH2 / Fold change vs veh, DIAPH2 / RFU, SKA2 / Fold change vs veh, SKA2 / RFU, AFF3 / Fold change vs veh, AFF3 / RFU, LMF1 / Fold change vs veh, LMF1 / RFU, IPO11 / Fold change vs veh, IPO11 / RFU, DFFB / Fold change vs veh, DFFB / RFU, FOXP1 / Fold change vs veh, FOXP1 / RFU, CARD8 / Fold change vs veh, CARD8 / RFU, STRN3 / Fold change vs veh, STRN3 / RFU, ADK / Fold change vs veh, ADK / RFU, RASSF2 / Fold change vs veh, RASSF2 / RFU, WIPF1 / Fold change vs veh, WIPF1 / RFU, LARP1B / Fold change vs veh, LARP1B / RFU, RASA1 / Fold change vs veh, RASA1 / RFU, RB1 / Fold change vs veh, RB1 / RFU, PPFIA1 / Fold change vs veh, PPFIA1 / RFU, MAT2A / Fold change vs veh, MAT2A / RFU, CCT5 / Fold change vs veh, CCT5 / RFU, WDR92 / Fold change vs veh, WDR92 / RFU, CUX1 / Fold change vs veh, CUX1 / RFU, TTC7A / Fold change vs veh, TTC7A / RFU, TMEM135 / Fold change vs veh, TMEM135 / RFU, DEPTOR / Fold change vs veh, DEPTOR / RFU, CPM / Fold change vs veh, CPM / RFU, DNAJB6 / Fold change vs veh, DNAJB6 / RFU, CACNA2D3 / Fold change vs veh, CACNA2D3 / RFU, DTX4 / Fold change vs veh, DTX4 / RFU, TFCP2 / Fold change vs veh, TFCP2 / RFU, GMCL1 /// GMCL1P1 / Fold change vs veh, GMCL1 /// GMCL1P1 / RFU, AEBP2 / Fold change vs veh, AEBP2 / RFU, SNHG1 /// SNORD22 /// SNORD25 /// SNORD26 /// SNORD27 /// SNORD28 /// SNORD29 /// SNORD31 / Fold change vs veh, SNHG1 /// SNORD22 /// SNORD25 /// SNORD26 /// SNORD27 /// SNORD28 /// SNORD29 /// SNORD31 / Fold change (Aza/veh), C12orf56 (ProbeSet 11735607_a_at) / Fold change (ACY-1035/veh), C12orf56 (ProbeSet 11735607_a_at) / Fold change (Aza/veh), FGFR1OP (ProbeSet 11751329_s_at) / Fold change (ACY-1035/veh), FGFR1OP (ProbeSet 11751329_s_at) / Fold change (Aza/veh), VPS36 (ProbeSet 11739960_a_at) / Fold change (ACY-1035/veh), VPS36 (ProbeSet 11739960_a_at) / RFU SYPL1 (11715823_x_at) / Fold change /veh SYPL1 (11715823_x_at) / RFU IGFBP7 (11715501_s_at) / Fold change /veh IGFBP7 (11715501_s_at) / RFU REEP3 (11722064_at) / Fold change /veh REEP3 (11722064_at) / RFU IGLL1 (11728026_x_at) / Fold change /veh IGLL1 (11728026_x_at): dose or concentration left out as unconfirmed
Conditions: ProbeSet 11758170_s_at; LIST D

SMILES: Nc1ncn([C@@H]2O[C@H](CO)[C@@H](O)[C@H]2O)c(=O)n1 [azacitidine]
- Fold change vs veh, DIAPH2: 0.72
